These results are taken from patent US20080090254A1, “Method for assessing proliferation inhibiting effect of inhibitor, and method for determining sensitivity of tumor cell to inhibitor” (SYSMEX CORPORATION, priority 2006, published 2008).

Experiment [1] relates to receptor tyrosine kinase group derived from a cell membrane of MDA-MB468. Kind of experiment: activity of receptor tyrosine kinase group, sample for reaction MB468 (ELISA, GST-poly(Glu, Tyr) substrate). To be noted: for effect of inhibiting the activity of a receptor tyrosine kinase group, inhibitor combined with 4557W: Example 2, FIG. 6, 400 μM inhibitor combined with 400 μM 4557W; for effect of inhibiting the activity of a receptor tyrosine kinase group, inhibitor alone: Example 2, FIG. 6, treating solution containing 400 μM inhibitor alone; for inhibition of the activity of the receptor tyrosine kinase group: Example 1, FIG. 3, treating solution containing 400 μM inhibitor, versus sample not treated = 100%. Type of experiment: biochemical. The method, then: (§1) From five kinds of cultured cells (MDA-MB453, MDA-MB468, SKBr3, Hela and HT29), a sample for reaction was prepared. Specifically, the cultured cell and 1 ml of a cell treating solution (containing 20 mM HEPES pH7.4, 0.2% PI, 10% glycerol, 200 μM Na3VO4, and 50 mM NaF) were mixed. By pressing using a pestle, a cell membrane of the resulting mixed solution was destructed to prepare a cell solution. The resulting cell solution was centrifuged, a supernatant was discarded, and a precipitate was recovered. The recovered precipitate and a cell membrane solubilizing solution (containing 20 mM HEPES pH7.4, 1% NP40, 0.2% PI, 10% glycerol, 200 μM Na3VO4, and 50 mM NaF) were mixed. A cell membrane in the mixed solution obtained by pressing using a pestle was solubilized, and centrifuged to recover a supernatant. This supernatant was used as a sample for reaction. MDA-MB453 is a cultured cell derived from a breast cancer, and a sample for reaction prepared from this cell is designated as sample for reaction MB453. MDA-MB468 is a cultured cell derived from a breast cancer, and a sample for reaction prepared from this cell is designated as sample for reaction MB468. SKBr3 is a cultured cell derived from a breast cancer, and a sample for reaction prepared from this cell is designated as sample for reaction SKBr3. Hela is a cultured cell derived from a uterine cervical cancer, and a sample for reaction prepared from this cell is designated sample for reaction Hela. HT29 is a cultured cell derived from a large intestine cancer, and a sample for reaction prepared from this cell is designated sample for reaction HT29.
As a plate for ELISA, a glutathione-coated plate (Reacti-Bind Clear Glutathione Coated Plates, 8-well Strip (PIERCE)) was used. First, each well of the plate was washed with TBS-T (containing 25 mM Tris, 150 mM NaCl and 0.05% Tween 20) three times. Then, into each well was placed 50 μl of the substrate solution 1 containing the GST-poly (Glu, Tyr) substrate prepared in the 1 (TBS containing 5 μg/ml GST-poly (Glu, Tyr) substrate), and this was incubated at 25° C. for 1 hour while slightly shaken. After incubation, each well was washed with TBS-T two times. Further, each well was washed with 20 mM HEPES pH7.4 (containing 0.05% Tween 20) once. Like this, the GST-poly (Glu, Tyr) substrate was bound to a surface of a well of the plate for ELISA. This plate for ELISA was used in the following enzyme reaction.
First, 25 μl of the sample for reaction MB453 was dispensed into 6 tubes, respectively. Among 6 tubes, to the first tube was added 25 μl of a treating solution containing 400 μM (20 mM HEPES pH7.4, 20 mM MnCl2, 2 mM DTT, 1% NP40, 10% glycerol, 200 μM Na3VO4, 50 mM NaF, 400 μM ATP). To the second tube was added 25 μl of a treating solution containing 400 μM AG1478. To the third tube was added 25 μl of a treating solution containing 400 μM 4557W. To the fourth tube was added 25 μl of a treating solution containing 400 μM PDGF Receptor Tyrosine Kinase Inhibitor III. To the fifth tube was added 25 μl of a treating solution containing 400 μM VEGF Receptor Tyrosine Kinase Inhibitor III. To the sixth tube was added 25 μl of a treating solution containing no inhibitor. The thus obtained solutions are used as a reaction solution. Similarly, using the sample for reaction MB468, the sample for reaction SKBr3, the sample for reaction Hela and the sample for reaction HT29, samples for reaction were prepared. In order to suppress the enzyme activity of receptor tyrosine kinase, this working was performed under the condition of not higher than 4° C.
Fifty microliter of each reaction solution was placed into separate wells of the plate for ELISA, and this was incubated at 25° C. for about 30 minutes. After incubation, 100 μl of a reaction stopping solution (TBS-T containing 1 mM EDTA) was added to each well, followed by further washing with TBS-T three times. Then, each well was washed with 300 μl of StartingBlock T20 (TBS) Blocking Buffer (PIERCE). […]
Background: In an ELISA, binding on a coated surface is turned into a signal by an enzyme label.

The subject of another experiment is MDA-MB468 tumor. Kind of experiment: proliferation of tumor cell in a mouse body (tumor volume). In kind it is in vivo. To be noted: Comparative Example 2, FIG. 5; BALB/c nu/nu mouse with MDA-MB468 tumor; 30 mg/kg/day injected for 7 days; compared with DMSO. As for the experimental part: MDA-MB468 used in Example 1 was cultured in a culturing solution (DMEM-F12 (Sigma) containing 10% FBS (Hyclone)) so that it became 60% confluent in a 225 cm^2 flask. The resulting cultured cells were suspended to about 1×10^7 in 100 μl of DMEM-F12, to prepare a MDA-MB468 cell solution.
A fat pad of a 10-week old female mouse (BALB/c nu/nu) was injected with 100 μl of the MDA-MB468 cell solution. After 14 days, it was confirmed that a tumor became large in a mouse body. Like this, a tumor was formed in three mice bodies.
Fourteen days after injection with the MDA-MB468 cell solution, a mouse in which a tumor had been generated was injected with an inhibitor solution. Specifically, AG1478 used in Example 1 was dissolved in 100 μl of dimethyl sulfoxide (DMSO, Sigma) to prepare an inhibitor solution 1. And, the inhibitor solution 1 was injected into a mouse to a dose of the inhibitor of 30 mg/kg/day. […]
The day when the mouse was first injected with an inhibitor solution was regarded as the first day after injection. And, on the first day, the third day, the fifth day, and the eighth day after injection, a volume of a tumor in a mouse body was measured. As a volume of a tumor, a long diameter and a short diameter of a tumor were measured, and a volume was calculated from a long diameter and a short diameter on the assumption that a shape of a tumor was an elliptic sphere.

In experiment [2] the test system is receptor tyrosine kinase group derived from a cell membrane of SKBr3. In words: activity of receptor tyrosine kinase group, sample for reaction SKBr3 (ELISA, GST-poly(Glu, Tyr) substrate). To be noted: Example 1, FIG. 3, treating solution containing 400 μM inhibitor, versus sample not treated = 100%. In kind it is biochemical. The method, then:
as §1, with “Hela is a cultured cell derived from a uterine cervical cancer, and a sample for reaction prepared from this cell is designated sample for reaction Hela. HT29 is a cultured cell derived from a large intestine cancer, and a sample for reaction prepared from this cell is designated sample for reaction HT29.” left out

Experiment [3] deals with receptor tyrosine kinase group derived from a cell membrane of MDA-MB453. In words: activity of receptor tyrosine kinase group, sample for reaction MB453 (ELISA, GST-poly(Glu, Tyr) substrate). In kind it is biochemical. To be noted: Example 1, FIG. 3, treating solution containing 400 μM inhibitor, versus sample not treated = 100%. As for the experimental part: as §1, with “Hela is a cultured cell derived from a uterine cervical cancer, and a sample for reaction prepared from this cell is designated sample for reaction Hela. HT29 is a cultured cell derived from a large intestine cancer, and a sample for reaction prepared from this cell is designated sample for reaction HT29.” left out

The test system of experiment [4] is receptor tyrosine kinase group derived from a cell membrane of HT29. In words: activity of receptor tyrosine kinase group, sample for reaction HT29 (ELISA, GST-poly(Glu, Tyr) substrate). In kind it is biochemical. Particulars: Example 1, FIG. 3, treating solution containing 400 μM inhibitor, versus sample not treated = 100%. The method, then:
as §1, with “Hela is a cultured cell derived from a uterine cervical cancer, and a sample for reaction prepared from this cell is designated sample for reaction Hela. HT29 is a cultured cell derived from a large intestine cancer, and a sample for reaction prepared from this cell is designated sample for reaction HT29.” left out

In another experiment the test system is MDA-MB453. Kind of experiment: cell proliferation, CellTiter-Glo Luminescent Cell Viability Assay. Type of experiment: cell-based. To be noted: Comparative Example 1, FIG. 4, final concentration 1 × 10^−5 M (Table 1), cultured 3 days. As for the experimental part:
(§2) Cells were seeded on each well of a plate for culturing (96 Well Solid White Flat Bottom Polystyrene TC-Treated Microplates, Corning) at 1000 cells per well, and cultured at 37° C. for 24 hours. After culturing, an inhibitor was added to each well, and cells were further cultured at 37° C. for 3 days. As cells, five kinds of cultured cells used in Example 1 (MDA-MB453, MDA-MB468, SKBr3, Hela and HT29) were used. As the inhibitor, five kinds of inhibitors used in Example 1 (PD153035, AG1478, 4557W, PDGF Receptor Tyrosine Kinase Inhibitor III and VEGF Receptor Tyrosine Kinase Inhibitor III) were used. In Table 1, the final concentration is a concentration when the inhibitor is added to a well, and is mixed with cells.
(§3) For measuring cell proliferation, CellTiter-Glo Luminescent Cell Viability Assay (Promega) was used. This is a reagent kit which can quantitate ATP derived from a cell having the metabolism activity in a medium to measure a viable cell. First, according to a protocol attached to the kit, a measurement reagent was prepared. The measurement reagent was added at 100 μl per well, and a culturing plate was stirred with a shaker for 2 minutes. After stirring, the plate was allowed to stand for 10 minutes, and […] was measured using GENios (TECAN). Since […] is generated in proportion with an amount of ATP derived from a cell having the metabolism activity in a medium, a viable cell in a medium can be measured by measuring […].
(§4) Based on the measurement result, radar charts of FIG. 4 were produced. FIG. 4 contains a radar chart in the case of use of MDA-MB453, a radar chart in the case of use of MDA-MB468, a radar chart in the case of use of SKBr3, a radar chart in the case of use of Hela, and a radar chart in the case of use of HT29. These radar charts show a proportion of a measured value obtained by treating a cell with an inhibitor, letting a measured value when a cell was not treated with an inhibitor to be 100%. In radar charts, 1 is the case where a cell was treated with PD153035, 2 is the case where a cell was treated with AG1478, 3 is the case where a cell was treated with 4557W, 4 is the case where a cell was treated with PDGF Receptor Tyrosine Kinase Inhibitor III, and 5 is the case where a cell was treated with VEGF Receptor Tyrosine Kinase Inhibitor III.

In another experiment the test system is HT29. Described as above. Particulars: Comparative Example 1, FIG. 4, final concentration 1 × 10^−5 M (Table 1), cultured 3 days. In kind it is cell-based. As for the experimental part: as §2, §3, §4
The subject of the next experiment is MDA-MB468. The experiment is described as above. In kind it is cell-based. To be noted: cultured 3 days. The method, then:
as §2, §3, §4

Another experiment relates to SKBr3. The description is as above. In kind it is cell-based. To be noted: Comparative Example 1, FIG. 4, final concentration 1 × 10^−5 M (Table 1), cultured 3 days. The method, then:
as §2, §3, §4

Where [5] appears, read: Comparative Example 1, FIG. 4, final concentration 1 × 10^−6 M (Table 1).

With `COc1cc2ncnc(N3CCN(C(=O)Nc4ccc(Oc5ccccc5)cc4)CC3)c2cc1OC`, in experiment [1], the “effect of inhibiting the activity of a receptor tyrosine kinase group, inhibitor combined with 4557W” value was “high activity inhibiting effect” and the “effect of inhibiting the activity of a receptor tyrosine kinase group, inhibitor alone” value (from here on “effect … inhibitor alone”) is listed as “little effect”.

Regarding `CCCNC(=O)Nc1ccc(Oc2ncnc3cc(OC)c(OC)cc23)cc1Cl`, in [1], the “effect of inhibiting the activity of a receptor tyrosine kinase group, inhibitor combined with 4557W” value is “high activity inhibiting effect” and the “effect … inhibitor alone” value was “little effect”.

`COc1cc2ncnc(Nc3ccc(OCc4ccccc4)cc3)c2cc1OC` [4557W]: the “inhibition of proliferation of a tumor cell in a mouse body (change in volume of tumor)” value in the experiment with MDA-MB468 tumor is “recognized”. Besides, the “inhibition of the activity of the receptor tyrosine kinase group” value in experiment [2], in [3], in experiment [4] and in [1] was “inhibited” in each case. Also, the “effect … inhibitor alone” value in experiment [1] is “highest activity inhibiting effect”. Further, the inhibition of proliferation result in the experiment on MDA-MB453 is “recognized”; in the experiment with HT29, “recognized”; with MDA-MB468 (Comparative Example 1, FIG. 4, final concentration 1 × 10^−5 M (Table 1)), “recognized”; in the experiment on SKBr3 it was “recognized”.

With `COc1cc2ncnc(Nc3cccc(Cl)c3)c2cc1OC` [AG1478], the “inhibition of proliferation of a tumor cell in a mouse body (change in volume of tumor)” value in the experiment with MDA-MB468 tumor is reported as “recognized”. Also, the “inhibition of the activity of the receptor tyrosine kinase group” value in experiment [1] is on record as “inhibited”. Also, the inhibition of proliferation result with MDA-MB468 (setting [5]) is “recognized”.

On to `COc1cc2ncnc(Nc3cccc(Br)c3)c2cc1OC` [PD153035], for which, in experiment [1], the “inhibition of the activity of the receptor tyrosine kinase group” value is “inhibited”. In addition, in the experiment on MDA-MB468 (setting [5]), the inhibition of proliferation result is “recognized”.
